In ChEMBL document CHEMBL6109078, “Pyrylium derivatives as outer membrane permeabilizers against MDR gram-negative bacteria via multi-target mode of action” (Eur J Med Chem, 2025):
Calls of active or inactive are those of the source. The calls are words filed in the database; no cut-off is given here.

Legend:
Escherichia coli [1] = assay: Antibacterial activity against ESBL positive Escherichia coli ATCC 35218 assessed as inhibition of bacterial growth by CLSI protocol based method; format: functional
Pseudomonas aeruginosa [2] = assay: Antibacterial activity Pseudomonas aeruginosa PAO1 assessed as inhibition of bacterial growth by CLSI protocol based method; format: functional
Acinetobacter baumannii [3] = assay: Antibacterial activity against multi-drug resistant Acinetobacter baumannii clinical isolate 5 assessed as inhibition of bacterial growth by CLSI protocol based method; format: functional
Acinetobacter baumannii [4] = assay: Antibacterial activity against multi-drug resistant Acinetobacter baumannii clinical isolate 10 assessed as inhibition of bacterial growth by CLSI protocol based method; format: functional
Acinetobacter baumannii [5] = assay: Antibacterial activity against multi-drug resistant Acinetobacter baumannii clinical isolate 2 assessed as inhibition of bacterial growth by CLSI protocol based method; format: functional
Acinetobacter baumannii [6] = assay: Antibacterial activity against multi-drug resistant Acinetobacter baumannii clinical isolate 4 assessed as inhibition of bacterial growth by CLSI protocol based method; format: functional
Acinetobacter baumannii [7] = assay: Antibacterial activity against multi-drug resistant Acinetobacter baumannii clinical isolate 51 assessed as inhibition of bacterial growth by CLSI protocol based method; format: functional
Acinetobacter baumannii [8] = assay: Antibacterial activity against multi-drug resistant Acinetobacter baumannii clinical isolate 14 assessed as inhibition of bacterial growth by CLSI protocol based method; format: functional
Acinetobacter baumannii [9] = assay: Antibacterial activity against multi-drug resistant Acinetobacter baumannii clinical isolate 1 assessed as inhibition of bacterial growth by CLSI protocol based method; format: functional
Acinetobacter baumannii [10] = assay: Antibacterial activity against multi-drug resistant Acinetobacter baumannii clinical isolate 43 assessed as inhibition of bacterial growth by CLSI protocol based method; format: functional
Escherichia coli [11] = assay: Antibacterial activity against multi-drug resistant Escherichia coli clinical isolate 1 assessed as inhibition of bacterial growth by CLSI protocol based method; format: functional
Acinetobacter baumannii [12] = assay: Synergistic antibacterial activity against Acinetobacter baumannii ATCC 19606 assessed as inhibition of bacterial growth by measuring polymyxin B MIC by checkerboard assay; format: functional
Acinetobacter baumannii [13] = assay: Synergistic antibacterial activity against multi-drug resistant Acinetobacter baumannii clinical isolate 5 assessed as inhibition of bacterial growth by measuring polymyxin B MIC by checkerboard assay; format: functional
Acinetobacter baumannii [14] = assay: Synergistic antibacterial activity against multi-drug resistant Acinetobacter baumannii clinical isolate 43 assessed as inhibition of bacterial growth by measuring polymyxin B MIC by checkerboard assay; format: functional
Escherichia coli [15] = assay: Synergistic antibacterial activity against Escherichia coli ATCC 25922 assessed as inhibition of bacterial growth by measuring polymyxin B MIC by checkerboard assay; format: functional
Escherichia coli [16] = assay: Synergistic antibacterial activity against multi-drug resistant Escherichia coli clinical isolate 1 assessed as inhibition of bacterial growth by measuring polymyxin B MIC by checkerboard assay; format: functional
Acinetobacter baumannii [17] = assay: Synergistic antibacterial activity against multi-drug resistant Acinetobacter baumannii clinical isolate 5 assessed as inhibition of bacterial growth in presence of polymyxin B by checkerboard assay; format: functional
Acinetobacter baumannii [18] = assay: Synergistic antibacterial activity against multi-drug resistant Acinetobacter baumannii clinical isolate 14 assessed as inhibition of bacterial growth in presence of polymyxin B by checkerboard assay; format: functional
Acinetobacter baumannii [19] = assay: Synergistic antibacterial activity against multi-drug resistant Acinetobacter baumannii clinical isolate 43 assessed as inhibition of bacterial growth in presence of polymyxin B by checkerboard assay; format: functional
Escherichia coli [20] = assay: Synergistic antibacterial activity against Escherichia coli ATCC 25922 assessed as inhibition of bacterial growth in presence of polymyxin B by checkerboard assay; format: functional
Escherichia coli [21] = assay: Synergistic antibacterial activity against multi-drug resistant Escherichia coli clinical isolate 1 assessed as inhibition of bacterial growth in presence of polymyxin B by checkerboard assay; format: functional
Escherichia coli [22] = assay: Synergistic antibacterial activity against Escherichia coli CG-4 expressing MCR-1 and NDM-1 assessed as inhibition of bacterial growth in presence of polymyxin B by checkerboard assay; format: functional
Acinetobacter baumannii [23] = assay: Synergistic antibacterial activity against multi-drug resistant Acinetobacter baumannii clinical isolate 5 assessed as fractional inhibitory concentration index in presence of polymyxin B by checkerboard assay; format: functional
Acinetobacter baumannii [24] = assay: Synergistic antibacterial activity against multi-drug resistant Acinetobacter baumannii clinical isolate 1 assessed as fractional inhibitory concentration index in presence of polymyxin B by checkerboard assay; format: functional
Escherichia coli [25] = assay: Synergistic antibacterial activity against Escherichia coli ATCC 25922 assessed as fractional inhibitory concentration index in presence of polymyxin B by checkerboard assay; format: functional
Escherichia coli [26] = assay: Synergistic antibacterial activity against multi-drug resistant Escherichia coli clinical isolate 1 assessed as fractional inhibitory concentration index in presence of polymyxin B by checkerboard assay; format: functional
Escherichia coli [27] = assay: Synergistic antibacterial activity against Escherichia coli CG-4 expressing MCR-1 and NDM-1 assessed as fractional inhibitory concentration index in presence of polymyxin B by checkerboard assay; format: functional
Acinetobacter baumannii [28] = assay: Synergistic antibacterial activity against Acinetobacter baumannii ATCC 19606 assessed as fractional inhibitory concentration index in presence of gentamycin by checkerboard assay; format: functional
Acinetobacter baumannii [29] = assay: Synergistic antibacterial activity against multi-drug resistant Acinetobacter baumannii clinical isolate 5 assessed as fractional inhibitory concentration index in presence of gentamycin by checkerboard assay; format: functional
Acinetobacter baumannii [30] = assay: Synergistic antibacterial activity against multi-drug resistant Acinetobacter baumannii clinical isolate 14 assessed as fractional inhibitory concentration index in presence of amikacin by checkerboard assay; format: functional
Acinetobacter baumannii [31] = assay: Synergistic antibacterial activity against multi-drug resistant Acinetobacter baumannii clinical isolate 1 assessed as fractional inhibitory concentration index in presence of gentamycin by checkerboard assay; format: functional
Acinetobacter baumannii [32] = assay: Synergistic antibacterial activity against multi-drug resistant Acinetobacter baumannii clinical isolate 43 assessed as fractional inhibitory concentration index in presence of amikacin by checkerboard assay; format: functional
Acinetobacter baumannii [33] = assay: Synergistic antibacterial activity against multi-drug resistant Acinetobacter baumannii clinical isolate 43 assessed as fractional inhibitory concentration index in presence of gentamycin by checkerboard assay; format: functional
Escherichia coli [34] = assay: Synergistic antibacterial activity against Escherichia coli ATCC 35218 assessed as fractional inhibitory concentration index in presence of amikacin by checkerboard assay; format: functional
Escherichia coli [35] = assay: Synergistic antibacterial activity against Escherichia coli ATCC 35218 assessed as fractional inhibitory concentration index in presence of gentamycin by checkerboard assay; format: functional
Escherichia coli [36] = assay: Synergistic antibacterial activity against multi-drug resistant Escherichia coli clinical isolate 1 assessed as fractional inhibitory concentration index in presence of amikacin by checkerboard assay; format: functional
Escherichia coli [37] = assay: Synergistic antibacterial activity against Escherichia coli CG-4 expressing MCR-1 and NDM-1 assessed as fractional inhibitory concentration index in presence of gentamycin by checkerboard assay; format: functional
Klebsiella pneumoniae = assay: Synergistic antibacterial activity against Klebsiella pneumoniae assessed as inhibition of bacterial growth in presence of polymyxin B by checkerboard assay; format: functional, organism-based
Acinetobacter baumannii [38] = assay: Antibacterial activity against Acinetobacter baumannii ATCC 19606 assessed as inhibition of bacterial growth by measuring decrease in bacterial count at 6.25 to 50 microg/ml measured after 12 hrs by time-kill kinetics analysis; format: functional; conditions: dose 6.25-50 µg/ml
Pseudomonas aeruginosa [39] = assay: Synergistic antibacterial activity against Pseudomonas aeruginosa assessed as inhibition of bacterial growth in presence of aminoglycoside by checkerboard assay; format: functional, organism-based
Escherichia coli [40] = assay: Antibacterial activity against Escherichia coli ATCC 25922 assessed as inhibition of bacterial growth by measuring decrease in bacterial count at 6.25 to 50 microg/ml measured after 12 hrs by time-kill kinetics analysis; format: functional; conditions: dose 6.25-50 µg/ml
Bacteria = assay: Binding affinity to His-tagged LptA (unknown origin) extracted from Escherichia coli BL21 (DE3) cells by BLI analysis

CC(C)(C)c1cc(/C=C/c2ccc(N3CCCC3)cc2)cc(C(C)(C)C)[o+]1.O=S(=O)([O-])C(F)(F)F
MIC (Escherichia coli [1]): 6.25 µg/mL
MIC (Pseudomonas aeruginosa [2]): > 100 µg/mL
MIC (Acinetobacter baumannii [3]): 6.25 µg/mL
MIC (Acinetobacter baumannii [4]): 6.25 µg/mL
MIC (Acinetobacter baumannii [5]): 6.25 µg/mL
MIC (Acinetobacter baumannii [6]): 12.5 µg/mL
MIC (Acinetobacter baumannii [7]): 12.5 µg/mL
MIC (Acinetobacter baumannii [8]): 6.25 µg/mL
MIC (Acinetobacter baumannii [9]): 12.5 µg/mL
MIC (Acinetobacter baumannii [10]): 12.5 µg/mL
MIC (Escherichia coli [11]): ≥ 100 µg/mL
MIC (Acinetobacter baumannii [12]): 0.002 µg/mL
MIC (Acinetobacter baumannii [13]): 0.003 µg/mL
MIC (Acinetobacter baumannii [14]): 1 10^-4 ug/ml
MIC (Escherichia coli [15]): 31.25 10^-4 ug/ml
MIC (Escherichia coli [16]): 0.39 µg/mL
MIC (Acinetobacter baumannii [17]): 1.56 µg/mL
MIC (Acinetobacter baumannii [18]): 1.56 µg/mL
MIC (Acinetobacter baumannii [19]): 6.25 µg/mL
MIC (Escherichia coli [20]): 1.56 µg/mL
MIC (Escherichia coli [21]): 6.25 µg/mL
MIC (Escherichia coli [22]): 0.78 µg/mL
fractional inhibitory concentration index (FICI) (Acinetobacter baumannii [23]): 0.313
fractional inhibitory concentration index (FICI) (Acinetobacter baumannii [24]): <0.266
fractional inhibitory concentration index (FICI) (Escherichia coli [25]): 0.156
fractional inhibitory concentration index (FICI) (Escherichia coli [26]): 0.063
fractional inhibitory concentration index (FICI) (Escherichia coli [27]): 0.188
fractional inhibitory concentration index (FICI) (Acinetobacter baumannii [28]): 0.125
fractional inhibitory concentration index (FICI) (Acinetobacter baumannii [29]): 0.125
fractional inhibitory concentration index (FICI) (Acinetobacter baumannii [30]): 0.125
fractional inhibitory concentration index (FICI) (Acinetobacter baumannii [31]): 0.125
fractional inhibitory concentration index (FICI) (Acinetobacter baumannii [32]): 0.125
fractional inhibitory concentration index (FICI) (Acinetobacter baumannii [33]): 0.125
fractional inhibitory concentration index (FICI) (Escherichia coli [34]): 0.125
fractional inhibitory concentration index (FICI) (Escherichia coli [35]): 0.125
fractional inhibitory concentration index (FICI) (Escherichia coli [36]): 0.125
fractional inhibitory concentration index (FICI) (Escherichia coli [37]): 0.125
Activity (Klebsiella pneumoniae): inactive
Activity (Acinetobacter baumannii [38]): <6 log10CFU/ml
Activity (Pseudomonas aeruginosa [39]): inactive
Activity (Escherichia coli [40]): <6 log10CFU/ml
Activity (Bacteria): Dose-dependent-effect

CCN(CC)c1ccc(/C=C/c2cc(C(C)(C)C)[o+]c(C(C)(C)C)c2)cc1.O=S(=O)([O-])C(F)(F)F
MIC (Escherichia coli [1]): 6.25 µg/mL
MIC (Pseudomonas aeruginosa [2]): > 100 µg/mL
MIC (Acinetobacter baumannii [3]): 12.5 µg/mL
MIC (Acinetobacter baumannii [4]): 12.5 µg/mL
MIC (Acinetobacter baumannii [5]): 6.25 µg/mL
MIC (Acinetobacter baumannii [6]): 12.5 µg/mL
MIC (Acinetobacter baumannii [7]): 12.5 µg/mL
MIC (Acinetobacter baumannii [8]): 12.5 µg/mL
MIC (Acinetobacter baumannii [9]): 25 µg/mL
MIC (Acinetobacter baumannii [10]): 12.5 µg/mL
MIC (Escherichia coli [11]): ≥ 100 µg/mL
MIC (Acinetobacter baumannii [12]): 0.006 µg/mL
MIC (Acinetobacter baumannii [13]): 0.003 µg/mL
MIC (Acinetobacter baumannii [14]): 1 10^-4 ug/ml
MIC (Escherichia coli [15]): 7.8 10^-4 ug/ml
MIC (Escherichia coli [16]): 0.2 µg/mL
MIC (Acinetobacter baumannii [17]): 1.56 µg/mL
MIC (Acinetobacter baumannii [18]): 1.56 µg/mL
MIC (Acinetobacter baumannii [19]): 6.25 µg/mL
MIC (Escherichia coli [20]): 1.56 µg/mL
MIC (Escherichia coli [21]): 3.12 µg/mL
MIC (Escherichia coli [22]): 3.13 µg/mL
fractional inhibitory concentration index (FICI) (Acinetobacter baumannii [23]): 0.188
fractional inhibitory concentration index (FICI) (Acinetobacter baumannii [24]): <0.064
fractional inhibitory concentration index (FICI) (Escherichia coli [25]): 0.266
fractional inhibitory concentration index (FICI) (Escherichia coli [26]): 0.031
fractional inhibitory concentration index (FICI) (Escherichia coli [27]): 0.375
fractional inhibitory concentration index (FICI) (Acinetobacter baumannii [28]): 0.125
fractional inhibitory concentration index (FICI) (Acinetobacter baumannii [29]): 0.125
fractional inhibitory concentration index (FICI) (Acinetobacter baumannii [30]): 0.125
fractional inhibitory concentration index (FICI) (Acinetobacter baumannii [31]): 0.125
fractional inhibitory concentration index (FICI) (Acinetobacter baumannii [32]): 0.125
fractional inhibitory concentration index (FICI) (Acinetobacter baumannii [33]): 0.125
fractional inhibitory concentration index (FICI) (Escherichia coli [34]): 0.125
fractional inhibitory concentration index (FICI) (Escherichia coli [35]): 0.125
fractional inhibitory concentration index (FICI) (Escherichia coli [36]): 0.125
fractional inhibitory concentration index (FICI) (Escherichia coli [37]): 0.125
Activity (Klebsiella pneumoniae): inactive
Activity (Acinetobacter baumannii [38]): <6 log10CFU/ml
Activity (Pseudomonas aeruginosa [39]): inactive
Activity (Escherichia coli [40]): <6 log10CFU/ml
Activity (Bacteria): Dose-dependent-effect
